Measured values: ChEMBL document CHEMBL1201862, “PubChem BioAssay data set” (2004)
Active and inactive are the calls of the source.

Experiments:
[1] = molecular target: Voltage-dependent T-type calcium channel subunit alpha-1H (Homo sapiens, UniProt O95180); assay type: functional;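 further: channel activity triggered by adding a high calcium stimulation buffer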
[2] = molecular target: T1, Microphthalmia-associated transcription factor (Homo sapiens, UniProt O75030); test: reducers of TRPM1 reporter luminescence, concentration series – cell-based, SK-MEL-5, cherry-picked, set 3, MITF inhibitor project, dose response (AID 493073); assay type: functional;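 further: SK-MEL-5 melanoma cells with luciferase driven by the MITF target TRPM1 promoter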
T1 sequence (O75030 whole entry): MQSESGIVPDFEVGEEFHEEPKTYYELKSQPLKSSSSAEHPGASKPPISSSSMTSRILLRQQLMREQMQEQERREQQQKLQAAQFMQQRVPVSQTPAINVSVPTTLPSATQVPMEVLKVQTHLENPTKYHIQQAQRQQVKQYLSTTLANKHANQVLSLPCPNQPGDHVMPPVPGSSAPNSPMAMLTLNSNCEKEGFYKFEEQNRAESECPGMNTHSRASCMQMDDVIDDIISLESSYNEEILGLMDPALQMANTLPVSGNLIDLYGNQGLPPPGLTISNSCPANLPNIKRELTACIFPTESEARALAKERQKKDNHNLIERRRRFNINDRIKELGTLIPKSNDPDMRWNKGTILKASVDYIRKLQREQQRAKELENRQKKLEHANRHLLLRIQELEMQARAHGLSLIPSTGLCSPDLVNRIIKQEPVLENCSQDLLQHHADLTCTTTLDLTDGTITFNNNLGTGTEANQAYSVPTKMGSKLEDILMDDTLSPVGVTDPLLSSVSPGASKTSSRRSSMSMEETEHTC

[3] = luciferase reporter signal reduction – luminescence, H4-C neuroglioblastoma cells, dose response (AID 2458); assay type: functional, cell-based;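 further: H4 neuroglioblastoma cells stably carrying a luciferase reporter gene fusion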
[4] = alpha-synuclein stem-loop luciferase translation blockers – H4 neuroglioma cells, luminescence, confirmation (AID 1988); assay type: functional, cell-based
BJ [5] = test: cells; assay type: functional, cell-based; conditions: Homo sapiens
[6] = HEK-293T viability loss after treatment – luminescence, T-cell screen hits, cytotoxicity control for TCR NF-kB inhibitor project, dose response (AID 489026); assay type: functional, cell-based;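 further: cells exposed to compound about 14 hours before the viability readout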
BJ [7] = test: growth inhibition of engineered Ras-driven BJ cells – cell-based, alamar blue fluorescence, cherrypicked samples, dose response (AID 2631); assay type: functional; conditions: Homo sapiens;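 further: confirmatory dose-response assay in RAS-dependent BJ fibroblasts engineered with TERT, LT and ST, with cytotoxicity read by fluorescence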
BJ [8] = test: BJ-TERT-LT-ST fibroblast viability loss – cell-based, RAS-independent, luminescence, dose response (AID 1935); assay type: functional; conditions: Homo sapiens;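 further: BJ fibroblasts immortalized with TERT plus LT and ST oncogenes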
[9] = DRD fibroblast viability loss – cell-based, non-viral oncogenic, luminescence, dose response (AID 1934); assay type: functional; conditions: Homo sapiens
[10] = alpha-synuclein stem-loop translation blockers – luminescence, H4 neuroglioblastoma cells, dose confirmation, confirmation (AID 2454); assay type: functional, cell-based;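 further: H4 neuroglioblastoma cells carrying an alpha-synuclein 5'UTR luciferase reporter; potency for inhibition of the luciferase signal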
BJ [11] = test: BJ-TERT fibroblast viability loss – cell-based, RAS-independent, luminescence, dose response (AID 1933); assay type: functional; conditions: Homo sapiens
[12] = luciferase reporter signal suppression in cells – H4 neuroglioma cells, luminescence, dose response (AID 1990); assay type: functional, cell-based
cells [13] = assay type: functional, cell-based
[14] = HepG2 cell cytotoxicity, dose response, cytotoxicity control for non-replicating M. tuberculosis project (AID 489018); assay type: functional; conditions: Mycobacterium tuberculosis
[15] = microbe, parasite or virus in culture; assay type: functional; conditions: Mycobacterium tuberculosis
cells [16] = assay type: functional
[17] = THP-1 cell cytotoxicity, dose response, cytotoxicity control for non-replicating M. tuberculosis project (AID 489025); assay type: functional
[18] = Vero E6 cell cytotoxicity, dose response, cytotoxicity control for non-replicating M. tuberculosis project, secondary assay (AID 492998); assay type: functional, VeroE6; conditions: Vero C1008
[19] = molecular target: Cyclin-dependent kinase 5/CDK5 activator 1 (Homo sapiens, UniProt Q00535); test: blockade of human CDK5 activity – biochemical, cherry-picked samples, set 2, dose response (AID 504545)
[20] = molecular target: FAD-linked sulfhydryl oxidase ALR (Homo sapiens, UniProt P55789); test: ALR-catalysed DTT oxidation blockers – biochemical, H2O2 detection, luminescence, cherry-pick, dose response (AID 493248)
Bcl-2-related protein A1 = molecular target: T2, Bcl-2-related protein A1 (Mus musculus, UniProt Q07440); assay type: functional;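 further: confirmatory dose–response counterscreen on Bfl-1, used to check hits from a UBC13 polyubiquitin inhibitor campaign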
T2 sequence (Q07440 whole entry): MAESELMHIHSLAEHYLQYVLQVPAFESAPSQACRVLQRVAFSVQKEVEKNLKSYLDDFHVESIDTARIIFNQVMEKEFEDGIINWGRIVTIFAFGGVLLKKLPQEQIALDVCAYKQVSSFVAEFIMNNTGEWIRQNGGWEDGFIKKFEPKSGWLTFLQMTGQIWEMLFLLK

[21] = molecular target: T3, Ubiquitin-conjugating enzyme E2 N (Homo sapiens, UniProt P61088); assay type: functional
T3 sequence (P61088 whole entry): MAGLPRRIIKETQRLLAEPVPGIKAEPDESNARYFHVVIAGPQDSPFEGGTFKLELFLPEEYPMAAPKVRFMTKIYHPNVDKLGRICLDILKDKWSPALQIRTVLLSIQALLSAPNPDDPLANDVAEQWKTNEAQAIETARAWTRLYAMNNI

[22] = molecular target: T3, Ubiquitin-conjugating enzyme E2 N; assay type: functional; remark: listed apart in the source
[23] = test system: Streptococcus sp. 'group A'; test: Streptococcus pyogenes SK(-)GAS viability under kanamycin – luminescence, BacTiterGlo, confirmation, counter-screen for streptokinase expression inhibitor project, dose response (AID 1900); assay type: functional, organism-based
Streptokinase A = molecular target: T4, Streptokinase A (Streptococcus pyogenes serotype M1, UniProt P10520); test: viability-normalized secreted streptokinase activity reduction – plasminogen activation absorbance, OD405, dose response (AID 1914); assay type: functional, Streptococcus pyogenes M1 GAS;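 further: secreted streptokinase activity via plasminogen activation per viability signal from cell pellet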
T4 sequence (P10520 whole entry): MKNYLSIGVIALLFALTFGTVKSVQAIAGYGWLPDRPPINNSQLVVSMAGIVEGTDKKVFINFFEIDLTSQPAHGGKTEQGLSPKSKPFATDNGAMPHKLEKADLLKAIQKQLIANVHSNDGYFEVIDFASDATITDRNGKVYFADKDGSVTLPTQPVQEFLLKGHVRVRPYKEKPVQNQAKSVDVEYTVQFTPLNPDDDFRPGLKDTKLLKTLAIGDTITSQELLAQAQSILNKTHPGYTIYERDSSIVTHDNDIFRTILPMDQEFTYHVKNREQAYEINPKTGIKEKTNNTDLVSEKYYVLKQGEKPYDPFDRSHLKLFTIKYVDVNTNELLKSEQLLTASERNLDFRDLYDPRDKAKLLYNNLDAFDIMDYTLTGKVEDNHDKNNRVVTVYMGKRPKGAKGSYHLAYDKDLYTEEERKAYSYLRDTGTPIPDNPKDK

Streptococcus = test: GAS UMAA2166 growth inhibition – luminescence, BacTiterGlo, counter-screen for streptokinase expression inhibitor project, dose response (AID 1915); assay type: functional, organism-based;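 further: potency for reduction of bacterial viability or growth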
[24] = A Cell Based Secondary Assay To Explore Cytotoxicity of Compounds that Sensitize Mycobacterium Tuberculosis to Beta-Lactam Antibiotics.; assay type: functional
[25] = Luminescence Cell-Based Dose Retest to Confirm Inhibitors of Cancer Stem Cells. [Related pubchem assays (depositor defined):AID2717, AID2721]; assay type: functional; conditions: Homo sapiens

Voltage-dependent T-type calcium channel subunit alpha-1H, sequence (O95180 whole entry): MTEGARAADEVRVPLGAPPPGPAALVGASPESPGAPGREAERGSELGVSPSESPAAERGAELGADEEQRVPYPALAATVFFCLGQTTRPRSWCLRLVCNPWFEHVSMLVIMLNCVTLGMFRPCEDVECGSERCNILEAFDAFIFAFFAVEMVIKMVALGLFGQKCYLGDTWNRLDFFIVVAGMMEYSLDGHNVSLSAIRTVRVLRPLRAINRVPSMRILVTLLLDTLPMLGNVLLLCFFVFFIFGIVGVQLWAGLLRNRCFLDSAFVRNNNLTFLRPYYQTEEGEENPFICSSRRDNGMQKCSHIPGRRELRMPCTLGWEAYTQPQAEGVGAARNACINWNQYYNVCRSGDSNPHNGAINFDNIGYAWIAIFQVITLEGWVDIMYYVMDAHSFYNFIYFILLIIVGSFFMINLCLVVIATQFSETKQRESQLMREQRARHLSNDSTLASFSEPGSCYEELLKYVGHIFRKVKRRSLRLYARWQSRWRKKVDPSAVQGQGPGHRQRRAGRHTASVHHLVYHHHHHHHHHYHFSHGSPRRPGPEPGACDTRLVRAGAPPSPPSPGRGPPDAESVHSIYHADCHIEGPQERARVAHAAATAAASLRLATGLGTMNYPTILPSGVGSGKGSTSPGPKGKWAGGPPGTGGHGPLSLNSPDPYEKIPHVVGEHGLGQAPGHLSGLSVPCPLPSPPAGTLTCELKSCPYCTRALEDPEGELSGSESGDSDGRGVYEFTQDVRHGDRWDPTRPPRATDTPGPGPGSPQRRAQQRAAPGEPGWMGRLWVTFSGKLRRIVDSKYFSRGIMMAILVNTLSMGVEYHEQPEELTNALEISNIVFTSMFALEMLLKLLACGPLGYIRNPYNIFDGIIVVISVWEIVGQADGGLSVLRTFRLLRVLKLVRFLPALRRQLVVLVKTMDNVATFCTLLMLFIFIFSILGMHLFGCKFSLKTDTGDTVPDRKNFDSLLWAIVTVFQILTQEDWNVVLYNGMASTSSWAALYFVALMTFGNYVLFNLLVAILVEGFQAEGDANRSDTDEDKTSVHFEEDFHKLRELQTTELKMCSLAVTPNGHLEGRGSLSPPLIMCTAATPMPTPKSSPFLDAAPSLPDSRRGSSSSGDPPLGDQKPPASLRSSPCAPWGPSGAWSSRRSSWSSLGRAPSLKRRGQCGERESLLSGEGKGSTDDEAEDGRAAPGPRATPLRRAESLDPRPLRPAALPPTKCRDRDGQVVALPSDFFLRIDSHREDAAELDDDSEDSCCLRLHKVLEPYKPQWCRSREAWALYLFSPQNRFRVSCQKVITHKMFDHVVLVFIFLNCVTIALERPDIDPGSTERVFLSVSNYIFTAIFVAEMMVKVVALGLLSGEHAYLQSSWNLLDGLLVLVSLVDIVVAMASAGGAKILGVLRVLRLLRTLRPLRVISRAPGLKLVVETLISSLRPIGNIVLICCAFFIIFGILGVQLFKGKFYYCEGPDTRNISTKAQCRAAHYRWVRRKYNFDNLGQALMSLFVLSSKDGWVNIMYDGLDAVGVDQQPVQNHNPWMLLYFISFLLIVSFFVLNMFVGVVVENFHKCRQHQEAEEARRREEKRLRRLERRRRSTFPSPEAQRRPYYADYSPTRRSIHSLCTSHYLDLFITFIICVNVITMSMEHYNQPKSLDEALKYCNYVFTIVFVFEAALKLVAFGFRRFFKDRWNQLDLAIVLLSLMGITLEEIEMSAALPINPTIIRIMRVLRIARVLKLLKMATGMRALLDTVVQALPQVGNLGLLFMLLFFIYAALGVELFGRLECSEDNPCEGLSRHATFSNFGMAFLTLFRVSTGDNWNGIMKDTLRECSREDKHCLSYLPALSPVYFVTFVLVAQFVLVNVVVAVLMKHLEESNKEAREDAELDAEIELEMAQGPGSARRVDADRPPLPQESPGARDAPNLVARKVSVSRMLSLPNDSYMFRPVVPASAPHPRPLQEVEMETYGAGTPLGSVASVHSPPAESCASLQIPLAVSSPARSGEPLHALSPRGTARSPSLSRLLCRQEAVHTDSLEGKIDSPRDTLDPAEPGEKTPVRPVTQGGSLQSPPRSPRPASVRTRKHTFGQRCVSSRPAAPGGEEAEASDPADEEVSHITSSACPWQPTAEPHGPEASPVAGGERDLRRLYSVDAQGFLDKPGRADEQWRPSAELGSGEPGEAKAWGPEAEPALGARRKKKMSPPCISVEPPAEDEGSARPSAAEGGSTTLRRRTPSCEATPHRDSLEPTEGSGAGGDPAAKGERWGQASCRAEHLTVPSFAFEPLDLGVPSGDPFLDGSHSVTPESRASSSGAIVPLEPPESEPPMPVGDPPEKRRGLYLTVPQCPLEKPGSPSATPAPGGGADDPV
FAD-linked sulfhydryl oxidase ALR, sequence (P55789 whole entry): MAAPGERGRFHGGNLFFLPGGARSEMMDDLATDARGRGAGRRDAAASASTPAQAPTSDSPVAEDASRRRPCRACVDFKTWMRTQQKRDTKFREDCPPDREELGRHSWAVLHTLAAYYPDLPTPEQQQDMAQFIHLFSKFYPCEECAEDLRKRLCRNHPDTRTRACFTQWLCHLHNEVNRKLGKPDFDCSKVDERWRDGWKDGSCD
Cyclin-dependent kinase 5/CDK5 activator 1, sequence (Q00535 whole entry): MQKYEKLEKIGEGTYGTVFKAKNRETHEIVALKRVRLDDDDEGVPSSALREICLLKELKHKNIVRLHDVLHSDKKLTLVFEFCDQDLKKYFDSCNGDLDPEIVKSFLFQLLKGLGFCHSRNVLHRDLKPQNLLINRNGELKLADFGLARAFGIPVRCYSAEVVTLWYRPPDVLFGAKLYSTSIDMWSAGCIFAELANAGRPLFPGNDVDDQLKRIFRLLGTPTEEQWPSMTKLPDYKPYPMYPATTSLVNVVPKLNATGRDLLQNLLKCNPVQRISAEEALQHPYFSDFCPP
Cyclin-dependent kinase 5/CDK5 activator 1, sequence (Q15078 whole entry, further chain): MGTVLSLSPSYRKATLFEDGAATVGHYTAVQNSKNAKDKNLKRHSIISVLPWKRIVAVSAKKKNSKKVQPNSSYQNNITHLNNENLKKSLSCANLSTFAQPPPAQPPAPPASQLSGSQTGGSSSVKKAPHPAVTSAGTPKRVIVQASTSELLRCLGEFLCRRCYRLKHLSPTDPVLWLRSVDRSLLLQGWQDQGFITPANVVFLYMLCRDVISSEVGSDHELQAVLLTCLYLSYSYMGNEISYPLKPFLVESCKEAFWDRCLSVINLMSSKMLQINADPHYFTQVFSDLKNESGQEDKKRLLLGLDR

In the case of `COc1cccc(-c2nc(CS(=O)(=O)CC(=O)N3CCc4ccccc4C3)c(C)o2)c1`, the EC50 [1] is reported as 10.8 µM (active).

For `N#C/C(=C(/O)CCl)c1nc2ccccc2[nH]1`, the AC50 [2] was 4.6 µM (active).

For `CCOc1ccccc1C(=O)N1CCN(c2cccc(Cl)c2)CC1`, the EC50 [3] was 0.229 µM (active), the EC50 [4] was < 0.1 µM (active) and the EC50 (BJ [5]) was 2.85 µM (inconclusive). The IC50 [6] was > 80 µM (inactive), the EC50 (BJ [7]) was < 0.104 µM (active) and the EC50 (BJ [8]) was 1.44 µM (active). The EC50 [9] was 2.65 µM (active), the EC50 [10] was 0.31 µM (active) and the EC50 (BJ [11]) was 2.66 µM (inconclusive). For the same compound, the EC50 [12] was < 0.1 µM (active) and the EC50 (cells [13]) was 0.331 µM (active).

For `CC(C)(C)OC(=O)NNc1c2ccccc2nc2ccccc12`, the CC50 [14] was 15.1 µM (active), the CC50 [15] was > 40 µM (active) and the IC50 (cells [16]) was 22.2 µM (active). For the same compound, the CC50 [17] was > 40 µM (active) and the CC50 [18] was > 20 µM (active).

With `Cc1cc(-c2nsc(=O)o2)c(S(C)(=O)=O)s1` the AC50 [19] was 29.3 µM (active) and the AC50 [20] was 3.86 µM (active).

For `Cn1cccc1Cc1nnc(SCC(=O)Nc2ccc(Cl)cc2)n1-c1ccc(F)cc1`, the EC50 [1] was 1.32 µM (active).

With `O=C(NCCN1CCN(c2ccccc2)CC1)c1ccc2c(c1)[nH]c(=S)n1c3ccccc3nc21` the IC50 (Bcl-2-related protein A1) was > 20 µM (inactive), the IC50 [21] was > 20 µM (inactive) and the IC50 [22] was 0.829 µM (active).

For `COc1cc2c(C(=O)N3CCN(c4ccccc4C)CC3)c(C)oc2cc1Br`, the EC50 [23] was 4.4 µM (active), the EC50 (Streptokinase A) was 79.8 µM (active) and the EC50 (Streptococcus) was 36 µM (active). For the same compound, the CC50 [24] was > 40 µM (active).

With `COc1cc(OC)cc(-c2cc3ccc(OC)cc3cn2)c1` the AC50 [25] was 3.32 µM (active) and the CC50 [24] was 21.8 µM (active).
